Series [1] can be described thus: method code SF, from PMID: 7274411.
A short description of series [2]: method code SF-AS, from DOI: 10.1016/0223-5234(94)90063-9. The note with it: pH 2.0.
A short description of series [3]: method code SF-RC, from DOI: 10.1002/ps.2780410303.
Series [4] can be described thus: method code SF-HPLC, from DOI: 10.1016/0378-5173(90)90303-l. The settings on record: pH 7.4.
Series [5] is described as follows: method code SF-AS, from DOI: 10.1016/s0969-8051(99)00063-3, PMID: 10628565. The settings on record: pH 7.0.
The nature of series [6]: method code SF-AS, from DOI: 10.1016/j.bmc.2004.10.037, PMID: 15653345.
Series [7] can be described thus: method code SF-HPLC, from DOI: 10.1023/a:1011018730459, PMID: 11451042.
Series [8] is described as follows: method code SF-AS, from DOI: 10.1021/jm00040a014, PMID: 8035429. The note with it: pH 7.4.
Series [9] is described as follows: method code SF-AS, from DOI: 10.1021/jm00395a009, PMID: 3681892. The settings on record: pH 7.4.
A short description of series [10]: method code SF-AS, from DOI: 10.1135/cccc19831077. The settings on record: pH 3.5.
Series [11] in a line: method code SF-HPLC, from DOI: 10.1016/0378-5173(89)90028-8.
Test in series [12]: not given
The source holds these as a separate data set.

Series [13] in a line: method code SF-HPLC, from DOI: 10.1039/a702469j. The settings on record: pH 7.0.
The nature of series [14]: method code SF, from Wang, L.; Li, H.; Wang, X.; Zhang, Z. (1993). Determination of aqueous solubilities and partition coefficients of substitutive ethylketone congeners by generator column. Huanjing Huaxue, 12(2)151-154.
Test in series [15]: not given
The source holds these as a separate data set.

Test in series [16]: not given
This is another data set of the same source.

A short description of series [17]: method code SF, from Yoshimoto, M. (1982). Quantitative structure-activity relationships and structure patterns of drugs. SankyoÌ„ KenkyuÌ„jo nenpoÌ„ (Annual report of Sankyo Research Laboratories), 34, 1-38.
Test in series [18]: not given
The source holds these as a separate data set.

Series [19] is described as follows: method code SF-HPLC, from DOI: 10.1023/a:1015902024664, PMID: 2235895. The settings on record: pH 7.0.
Test in series [20]: not given
The source holds these as a separate data set.

The nature of series [21]: method code SF, from DOI: 10.1016/0168-3659(92)90078-6. The note with it: pH 7.0.
The nature of series [22]: method code SF, from DOI: 10.1007/bf01610114, PMID: 6839039.
Test in series [23]: not given
This is another data set of the same source.

SMILES strings stand for the structures.

In series [1] (pH 4.0), `CN1C(=O)CN=C(c2ccccc2F)c2cc([N+](=O)[O-])ccc21` showed a logD of 2.05.

Turning to `COc1ccc(C(=O)c2ncc(CC(=O)O)n2C)cc1`, the log distribution coefficient (logD) in series [2] was found to be 0.11.

With `COc1ccc(C(c2ccc(OC)cc2)C(Cl)Cl)cc1`, the log partition coefficient (logP) turned out to be 3.78.

In series [3] (pH 2.8), `CCCCc1cnc(C2=NC(C)(C(C)C)C(=O)N2)c(C(=O)O)c1` (stereo unspecified) registered a logD of 1.99.

In the case of `CCN(CC)C(=O)COC(=O)c1cc(S(N)(=O)=O)c(Cl)cc1NCc1ccco1`, the logD in [4] was found to be 2.45.

As to `COCCn1cnc2c(=O)[nH]c(Nc3ccccc3)nc21`, in [5], the logD worked out at 1.2.

Turning to `COCc1cnc(C2=NC(C)(C(C)C)C(=O)N2)c(C(=O)O)c1` (stereo unspecified), in series [3] (pH 2.5), the log distribution coefficient (logD) worked out at 0.47.

Regarding `CCOC(=O)C(CS)NCc1ccc(O)c2ncccc12` (stereo unspecified), the lipophilicity (logP) in series [6] turned out to be 0.21.

`OC[C@H]1O[C@@H](n2cnc3c(NC4CCCC4)ncnc32)[C@H](O)[C@@H]1O` showed a lipophilicity (logP) in series [7] of 1.21.

In series [2], `Cn1c(CC(=O)O)cnc1C(=O)c1ccc(Cl)cc1` came in with a pH-dependent lipophilicity (logD) of 1.17.

The compound `OCCN1CCN(Cc2ccc(O)c3ncccc23)CC1` had a logP in series [6] of 0.54.

The compound `CCOP(=O)(OCC)C(=O)OCC1OC(n2ccc(NC(C)=O)nc2=O)CS1` (stereo unspecified) gave a logD in series [8] of 0.65.

`COC1OC(n2ccc(=O)[nH]c2=O)C(OC)C1OC` (stereo unspecified): the logD in series [9] is -0.3.

In turn, `O=C(O)Cc1ccc(OCCCc2ccccc2)c(Cl)c1` gave a pH-dependent lipophilicity (logD) in series [10] of 3.9.

In turn, `Fc1ccc(-c2ccc(-c3ccc(F)cc3)o2)cc1` returned a lipophilicity (logP) of 5.11.

In turn, `CCn1cc(C(=O)OCOC(=O)C(C)C)c(=O)c2ccc(C)nc21` yielded a logP in series [11] of 2.17.

Consider `OC(Cn1ccnc1)(Cn1cncn1)c1ccc(Cl)cc1Cl` (stereo unspecified), for which the log partition coefficient (logP) in series [12] came out at 1.6.

`CCOP(=O)(OCC)C(C)(C)[N+]([O-])=Cc1ccccn1` came in with a logD in series [13] of 0.68.

`C#CCN(C)Cc1ccc(O)c2ncccc12`: the log partition coefficient (logP) in [6] was found to be 1.92.

`Cc1cc(CC(=O)O)ccc1OCc1ccccc1` registered a logD in series [10] of 3.37.

`CC(C)C1(C)N=C(c2ncc(Br)cc2C(=O)O)NC1=O` (stereo unspecified) had a log distribution coefficient (logD) in [3] (pH 1.8) of 1.19.

`CCOP(=O)(CC(=O)OCC1OC(n2ccc(N)nc2=O)CS1)OCC` (stereo unspecified): the pH-dependent lipophilicity (logD) in [8] was 0.48.

In turn, `C/N=C1/CN(O)C(c2ccccc2)=c2cc(Cl)ccc2=N1` gave a logD in series [1] (pH 8.0) of 2.12.

In the case of `O=C(CSc1ccccc1)c1ccccc1`, the lipophilicity (logP) in series [14] turned out to be 1.88.

In series [14], `Cc1ccc(SCC(=O)c2ccccc2)cc1` yielded a log partition coefficient (logP) of 2.46.

Compound `CC(=O)c1cccc(Nc2ccccc2C(=O)O)c1` came in with a logP in series [15] of 4.07.

Compound `O=c1[nH]c(Nc2ccccc2)nc2c1ncn2CCO` gave a logD in series [5] of 0.83.

As for `Cn1c(=O)nc(-c2ccccc2)c2ccccc21`, the logP in series [16] came out at 1.79.

`CCC(C)SCC(=O)NC1(OC)C(=O)N2C(C(=O)O)=C(COC(N)=O)CSC21` (stereo unspecified) came in with a logP in series [17] of -1.38.

Compound `CC(=O)NC(CCC(=O)O)C(=O)Nc1nnc(-c2cccc(Cl)c2Cl)c(N)n1` (stereo unspecified) gave a logP in series [18] of 1.6.

As for `CC(=O)OCC1OC(n2ccc(=O)n(Cc3ccccc3)c2=O)C(OC(C)=O)C1OC(C)=O` (stereo unspecified), in series [9], the logD worked out at 1.51.

In series [19], `CCCC(=O)OC[C@H]1O[C@@H](n2cc(C)c(=O)[nH]c2=O)C[C@@H]1N=[N+]=[N-]` showed a logD of 1.5.

Turning to `CC(C)(C)NC[C@H](O)COc1nsnc1N1CCOCC1`, in series [20], the logP worked out at 1.98.

Compound `CSCCC(NC(C)=O)C(=O)Nc1nnc(-c2cccc(Cl)c2Cl)c(N)n1` (stereo unspecified) yielded a logP in series [18] of 1.92.

Turning to `CCCC(C)C(=O)OCC1CCC(n2cnc3c(O)ncnc32)O1` (stereo unspecified), in series [21], the logD was 1.

As for `CCOP(=O)(OCC)C(=O)CCCCNc1ccn(C2CSC(CO)O2)c(=O)n1` (stereo unspecified), the logD in [8] was 1.21.

`O=C(O)Cc1ccc(OCc2ccccc2)c(Cl)c1` displayed a logD in series [10] of 3.43.

On to `CC(C)OC(=O)c1ccccc1C(=O)OC(C)C`, for which, in series [22], the log partition coefficient (logP) stood at 2.83.

Turning to `Clc1ccc(C(Cn2ccnc2)OCc2ccsc2Cl)c(Cl)c1` (stereo unspecified), the logP in [12] amounted to 4.7.

In [11], `CCC(=O)OCOC(=O)c1cn(CC)c2nc(C)ccc2c1=O` yielded a logP of 1.7.

In [22], `CC(C)COC(=O)c1ccccc1C(=O)OCC(C)C` yielded a log partition coefficient (logP) of 4.11.

`Cc1cc(Cc2ccc(Cl)c(Cl)c2)c(Cl)cc1Cl` registered a logP in series [23] of 6.51.

Consider `O=c1ccn(C2OC(CO)C(O)C2O)c(=O)n1Cc1ccccc1` (stereo unspecified), for which the logD in series [9] stood at 0.33.

As for `COc1cccc(Nc2ccccc2C(=O)O)c1`, the logP in series [15] is 4.31.

`CCOCCOCCOc1ccc2c(c1)c(-c1ccccc1)nc(=O)n2C`: the lipophilicity (logP) in [16] turned out to be 1.84.

As to `CCCCCCC(O)(Cn1ccnc1)c1ccc(Cl)cc1Cl` (stereo unspecified), in series [12], the lipophilicity (logP) came out at 5.2.

Compound `O=C(OCC1OC(n2cnc3c(NC4CCCC4)ncnc32)C(O)C1O)C1CCCCC1` (stereo unspecified) showed a logP in series [7] of 2.95.

In series [18], `CC(=O)NCC(=O)Nc1nnc(-c2cccc(Cl)c2Cl)c(N)n1` displayed a lipophilicity (logP) of 1.1.

`O=C1CCCCCCCCCCC1` returned a logP of 4.1.

In [13], `CCOP(=O)(OCC)C(C)(C)[N+]([O-])=Cc1ccc(Cl)cc1` showed a logD of 2.44.

`O=C1CN=C(c2ccccc2)c2cc([N+](=O)[O-])ccc2N1`: the pH-dependent lipophilicity (logD) in [1] (pH 8.0) stood at 2.06.

`CCOP(=O)(OCC)C(C)(C)[N+]([O-])=Cc1ccc([N+](=O)[O-])cc1`: the logD in series [13] came to 1.43.

As to `CCCCCOC(=O)c1ccccc1C(=O)OCCCCC`, the logP in series [22] was determined as 4.85.

In series [20], `CC(=O)Nc1ccc(OCC(O)CNCC(O)COc2ccccc2)cc1` (stereo unspecified) had a lipophilicity (logP) of 1.39.

Turning to `Cc1cc(Cl)c(Cl)cc1Cc1ccc(Cl)cc1Cl`, in [23], the log partition coefficient (logP) came out at 6.43.

`OC(CNCC(O)COc1ccccc1)COc1ccccc1` (stereo unspecified) had a lipophilicity (logP) in series [20] of 2.52.

For `O=C(CSc1ccccc1)c1ccc(Cl)cc1`, the lipophilicity (logP) in series [14] came to 2.69.

As for `CC(C)(C)C(=O)OCC1CCC(n2cnc3c(O)ncnc32)O1` (stereo unspecified), the logD in series [21] was 0.6.

In turn, `COC1(NC(=O)CSc2nc3c[nH]cnc-3n2)C(=O)N2C(C(=O)O)=C(COC(N)=O)CSC21` (stereo unspecified) displayed a logP in series [17] of -1.72.

Turning to `Cc1cc(Cl)c(Cc2cc(Cl)ccc2Cl)cc1Cl`, the logP in series [23] was 6.51.

The compound `O=c1[nH]c(Nc2ccccc2)nc2c1ncn2C1CC(O)C(CO)O1` (stereo unspecified) displayed a logD in series [5] of 0.4.

`CCCCCC(=O)OC[C@H]1O[C@@H](n2cc(C)c(=O)[nH]c2=O)C[C@@H]1N=[N+]=[N-]` yielded a logD in series [19] of 2.45.

In the case of `CCn1cc(C(=O)OCOC(C)=O)c(=O)c2ccc(C)nc21`, the logP in series [11] stood at 1.21.

Turning to `CCCCCCCCCC(=O)OC[C@H]1O[C@@H](n2cc(C)c(=O)[nH]c2=O)C[C@@H]1N=[N+]=[N-]`, the logD in [19] came out at 4.45.

As for `Cn1c(CC(=O)O)cnc1C(=O)c1ccc([N+](=O)[O-])cc1`, the log distribution coefficient (logD) in series [2] was determined as 0.86.

Regarding `Cn1c(=O)nc(-c2ccccc2)c2cc(O)ccc21`, in [16], the logP worked out at 1.72.

In series [15], `O=C(O)c1ccccc1Nc1cccc(O)c1` registered a lipophilicity (logP) of 3.43.

Compound `COC1(NC(=O)CSc2nncs2)C(=O)N2C(C(=O)O)=C(COC(N)=O)CSC21` (stereo unspecified) showed a log partition coefficient (logP) in series [17] of -1.95.

As to `CCOC(=O)c1cc(S(N)(=O)=O)c(Cl)cc1NCc1ccco1`, the pH-dependent lipophilicity (logD) in series [4] stood at 2.67.

In the case of `CC(C)C(=O)OCC1CCC(n2cnc3c(O)ncnc32)O1` (stereo unspecified), in series [21], the pH-dependent lipophilicity (logD) stood at 0.02.

`CCC(=O)OCOC(=O)c1cc(S(N)(=O)=O)c(Cl)cc1NCc1ccco1`: the logD in series [4] worked out at 2.9.

In general, logD refers to the decadic logarithm of the distribution of all forms, ionised or not, between an organic phase and buffer at a given pH. A higher logD goes with a more lipophilic compound. For orientation: logP means the decadic logarithm of the partition coefficient of the neutral form, usually between octanol and water. A high value points to higher lipophilicity.

Values taken from the SangsterLogP compilation.
